In article PMC9138505, “Small Molecule 20S Proteasome Enhancer Regulates MYC Protein Stability and Exhibits Antitumor Activity in Multiple Myeloma” (Biomedicines, 2022):
Values joined by “and” are separate entries in the source; they are usually repeats but may differ in a detail not shown here. Identical values can stand only once.

How the values were obtained:
[1] = tested on: proteasome, CT-L substrate Suc-LLVY-AMC, canine PBMC lysate; assay: Proteasome activity in canine PBMC lysate (target engagement); assay type: in vivo; details: treated canines, 1920 mg BID
Protocol: Canine blood samples obtained in BD Vacutainer CPT mononuclear cell preparation tubes containing sodium citrate were used to isolate PBMCs. For PBMC isolation, sample tubes were inverted five times and equilibrated for the centrifuge with sterile PBS buffer. Tubes were centrifuged at 1800× g with the acceleration set at 5 and a break set to 0 at room temperature for 30 min. Half of the plasma layer was discarded. Using a sterile Pasteur pipette, the buffy coat was collected and put into a 15 mL conical tube and sterile PBS buffer was added to 10 mL. The conical tubes were centrifuged at 300× g for 10 min and the supernatant was removed. Cells were resuspended in 150 µL of lysis buffer (50 mM Tris-HCl, 2 mM Na2ATP, 5 mM MgCl2, 0.5 mM EDTA, 10% glycerol) and lysed by vortex. Samples were centrifuged for 20 min at 14,000× g. The total protein concentration of the supernatant was determined using bicinchoninic acid assay (BCA assay), and the samples were normalized to 1 mg/mL. Samples were diluted to 0.036 µg/µL in assay buffer (38 mM Tris, 100 mM NaCl, pH 7.8) and 140 µL of the diluted sample was added to three wells of a black, clear-bottom 96-well plate. Substrate stock solution (10 µL of 375 µM Suc-LLVY-AMC in assay buffer) was added to each well. Fluorescence was measured and kinetic readings were taken every 5 min at 37 °C, at 380/440 nm for 1 h.

[2] = Pharmacokinetic assessment in dogs; assay type: in vivo; details: male, beagle, dog
Protocol: (§1) Adult beagle dogs (male, 12 months of age, n = 3), weighing approximately 10 kg, received a […] of the test compound at 500 mg bid delivered in capsule form. Blood (approximately 2.5 mL) was collected into lithium heparin tubes at 0, 1 h, 2 h, 4 h, 8 h, and 24 h post-day 1 and post-day 5 dose for PK assessment using mass spectrometry. Blood (approximately 2 mL) was also collected and divided into EDTA and standard clot tubes on day 6 post-dose for determination of CBC and clinical chemistry parameters, respectively, and analyzed at the Michigan State University Veterinary Diagnostic Laboratory. Clinical observations were conducted daily on non-dosing days and twice on dosing days.

[3] = Tolerance in dogs (clinical observations, body weight, CBC, clinical chemistry); assay type: in vivo, beagle dogs; details: beagles
Protocol: as §1

[4] = tested on: human constitutive 20S proteasome; set-up: method as in PMID 29897236; details: i.e., 1000%; cited from earlier work
[5] = blood, dogs, 50 mg/kg bid oral capsule

- drug concentration by mass spectrometry [1]: 1400 nM and 1100 nM
- Cmax [2, 5]: 1600 nM
- Tmax [2, 5]: 24 h
- Cmax ([2]; plasma, dogs (n=3), means, 50 mg/kg bid oral): 1570 nM
- AUC ([2]; plasma, dogs (n=3), means, 50 mg/kg bid oral, read-out: AUC (nM) (0-24 for dogs)): 19.8 µM·h
Structure (SMILES): CCOC(=O)[C@]1(c2ccccc2)N=C(c2ccc(OC)cc2)N(Cc2ccccc2)[C@@H]1c1ccc(NCc2ccccc2)cc1 [TCH-165]
- body weight change ([3]; 50 mg/kg bid oral capsule, five consecutive days): < 1%
- clinical observations, body weight, complete blood counts and clinical chemistry panel compared to pre-dose status ([3]; 50 mg/kg bid oral capsule, five days): no significant changes
- notable change in the clinical chemistry profile ([3]; day 5 of administration): increase in plasma iron concentrations
- enhancement of 20S-mediated proteolysis [4]: ~10 fold
